Source: US12599666B2, “Photolytic compounds and triplet-triplet annihilation mediated photolysis” (University of Massachusetts, priority 2019, dated 2026)
Values joined by “and” are separate entries in the source; they are usually repeats but may differ in a detail not shown here. Identical values can stand only once. Like-named read-outs stand apart in the source and are kept apart here. Marks after values point to notes of the source that are not given here.

Experiments:
[1] = PPGs, from the literature, cited from earlier work
[2] = Photolytic molecule experiment: TTAP photolytic reaction in solution under LED, HPLC yield; type: physicochemical
Description: Photolytic molecule experiment: The NIR LED (720 nm), far red LED (650 nm), green LED (530 nm), blue LED (476 nm) and deep blue (455 nm) were used for photolytic reactions. […] Then, the solution was excited with a LED (20 mW/cm^2) at 37° C. After the photolytic reaction, the raw product was dried and re-dissolved in CH3CN/H2O=(2/1, v/v) and HPLC was used to analyze the yield of product.

[3] = Photophysical parameters of Sen and PPGs (UV-vis absorption, emission, energy levels); type: physicochemical; set-up: λabs maximum absorption wavelength / λem maximum emission wavelength: unit not given here; details: for λabs maximum absorption wavelength / λem maximum emission wavelength / ξ molar extinction coefficient: in toluene, 10 μM; for T1 triplet excited state: photosensitizers (Sen), from maximum phosphorescence emission
Description: Characterization: ^1H NMR spectra were recorded with a Bruker 500 MHz spectrometer. UV-Vis spectra were recorded on an Agilent Cary-5 spectrophotometer. Steady-state fluorescence spectra were measured on a HITACHI F-7000 spectrometer. […] The sample for TEM measurement was prepared by dropping the solution onto a carbon-coated copper grid following negative staining with 2.0% (w/v) phosphotungstic acid. The particle size and size distribution were measured by using dynamic light scattering (DLS) on a Malvern Nano-ZS particle size analyzer, excitation wavelength 532 nm. All samples in the Stern-Volmer quenching plots experiments were deaerated with argon for ca. 15 min before measurement and the gas flow was maintained during the measurements. For the TTA upconversion spectra measurement, the diode pumped solid-state laser (650 nm, continues wave, CW, Hi-Teach company, China) was used as the excitation light source and a modified spectrofluorometer was used to record the upconversion spectra. For the prodrug photolytic experiment, an All LED (Mightex Company) was used as the excitation light source.
From the absorption and emission spectra of Sen and PPGs, the triplet and singlet energy levels of PPG and Sen can be calculated. The maximum emission wavelength of phosphorescence is the triplet excited state energy level (T1) of the Sen. The maximum emission wavelength of fluorescence is the singlet excited state energy level (S1) of the PPGs. Moreover, according to the literature, we know the triplet excited energy levels of PPGs. The detail information is always in […]

[4] = cited from earlier work
[5] = Photocleavage quantum yield / photolytic quantum efficiency calculation
Description: We compared photolytic quantum efficiency of the widely used PPG of Cou by using the UCNPs as phototransducer.

[6] = TTA upconversion quantum yield; type: physicochemical
Description: The upconversion quantum yields (ΦUC): The upconversion quantum yields were calculated with the eq 3, where ΦUC and Φstd stand for upconversion luminescence quantum yield of sample TTA-UC and fluorescence quantum yield of reference compounds, respectively. Aunk and Astd stand for absorbance of the TTA-UC and reference compound, respectively. Iunk and Istd stand for integrated upconversion luminescence intensity of the TTA-UC and fluorescence intensity of reference compounds, respectively. ηunk and μstd stand for the refractive index of water. The equation is multiplied by a factor of 2 to make the maximum quantum yield of two unified emitters.
The upconversion experiments were deaerated with argon for ca. 15 min before measurement and the argon gas flow was kept during the measurement.

[7] = Stern-Volmer photoluminescence quenching of photosensitizers by PPGs-X; type: physicochemical
Description: The Stern-Volmer quenching plots experiment (ksv): photoluminescence of photosensitizers (PtTNP, PdTPBP, PtOEP, and Ir(ppy)3) in the presence of different concentrations of PPGs (BDP, perylene, anthracene and coumarin). The mixed solutions were degassed for at least 15 min with Ar in toluene. The ksv constants were calculated with eq 1, where 1o and It stand for photoluminescence intensity of photosensitizer in the absence of PPGs-X and the photoluminescence intensity of photosensitizer in the presence PPGs-X. Q is the concentration of PPGs-X. Biomolecular quenching constants (kq) were calculated by eq2. The Tr is the phosphorescence lifetime of photosensitizer in argon.

[8] = PtOEP, green LED light (20 mW/cm^2, 532 nm)
[9] = One photon: 120 mW/cm^2, λ > 400 nm
[10] = UCNPs as photo transducers, 570 mW cm^−2, λ = 980 nm
[11] = PdTPBP, far-red LED light (20 mW/cm^2, 650 nm)
[12] = PtTNP, NIR LED light (20 mW/cm^2, 720 nm, 1 h)

## anthracene [reference compound]
[1]
  T1 triplet excited state: 1.77 eV

## CCCCNC(=O)OCc1c2ccccc2cc2ccccc12 [compound 4]
[2]; [8]
  photolytic yield: 51.0%

## CCC1=C(CC)c2cc3[n-]c(cc4nc(cc5[n-]c(cc1n2)c(CC)c5CC)C(CC)=C4CC)c(CC)c3CC.[Pt+2] [PtOEP, platinum octaethylporphyrin]
[3]
  λabs maximum absorption wavelength: 533
  λem maximum emission wavelength: 647
  ξ molar extinction coefficient: 7.0 10^4 M^−1 cm^−1
  T1 triplet excited state: 1.92 eV

## O=c1ccc2ccccc2o1 [Coumarin, coumarin]
[4]; [9]
  Photocleavage quantum yield: 0.13
  Photolytic efficiency (ε × Φ): 806
[4]; [10]
  Photocleavage quantum yield: 0.13
[5]; [10]
  Overall photocleavage quantum yield; η (upconversion): <0.02873
[1]
  T1 triplet excited state: 2.18 eV

## CC(C)(C)OC(=O)NCC(=O)OCc1c2ccccc2cc2ccccc12 [compound 5]
[2]; [8]
  photolytic yield: 58.4%

## COc1ccc2c(c1)c(CC(=O)OCc1ccc3c4cccc5cccc(c6cccc1c63)c54)c(C)n2C(=O)c1ccc(Cl)cc1 [compound 17]
[2]; [11]
  photolytic yield: 51.7%
[2]; [12]
  photolytic yield: 9.2%

## CC(C)Cc1ccc(C(C)C(=O)OCc2ccc3c4cccc5cccc(c6cccc2c63)c54)cc1 (stereo not drawn) [compound 18]
[2]; [11]
  photolytic yield: 71.6%
[2]; [12]
  photolytic yield: 19.4%

## COc1ccc2cc(C(C)C(=O)OCc3ccc4c5cccc6cccc(c7cccc3c74)c65)ccc2c1 (stereo not drawn) [compound 16]
[2]; [11]
  photolytic yield: 78.5%
[2]; [12]
  photolytic yield: 17.4%

## [Pd+2].c1ccc(-c2c3nc(c(-c4ccccc4)c4[n-]c(c(-c5ccccc5)c5nc(c(-c6ccccc6)c6[n-]c2c2ccccc62)-c2ccccc2-5)c2ccccc42)-c2ccccc2-3)cc1 [PdTPBP, meso-tetraphenyltetrabenzoporphine palladium complex]
[3]
  λabs maximum absorption wavelength: 630
  λem maximum emission wavelength: 790
  ξ molar extinction coefficient: 11.0 10^4 M^−1 cm^−1
  T1 triplet excited state: 1.55 eV

## c1cc2cccc3c4cccc5cccc(c(c1)c23)c54 [Perylene, perylene]
[4]; 110 mW/cm^2 Hg lamp, >410 nm
  Photocleavage quantum yield: 0.093
  Photolytic efficiency (ε × Φ): 3627
[4]; 125 WHg lamp, ≥410 nm
  Photocleavage quantum yield: 0.093
  Photolytic efficiency (ε × Φ): 3627
[4]; TTAP, 20 mW/cm^2, λ = 650 nm
  Photocleavage quantum yield: 0.093
[5]; TTAP, 20 mW/cm^2, λ = 650 nm
  Overall photocleavage quantum yield: 12400
[1]
  T1 triplet excited state: 1.52 eV

## CC(=O)OCc1ccc2c3cccc4cccc(c5cccc1c52)c43 [compound 8]
[2]
  photolytic yield: 70%
[2]; PdTPBP, air, room light, 60 min
  Yield (HPLC) of photolytic reaction: No reaction
[2]; PdTPBP, argon, room light, 60 min
  Yield (HPLC) of photolytic reaction: No reaction
[2]; PdTPBP, dark, argon, 1 h
  Yield (HPLC) of photolytic reaction: No reaction
[2]; [11]
  photolytic yield: 87% and 87.1%
[2]; PdTPBP, light, air, 1 h
  Yield (HPLC) of photolytic reaction: No reaction
[2]; PdTPBP, light, argon, 1 h
  Yield (HPLC) of photolytic reaction: 87.1%
[2]; [12]
  photolytic yield: 14.7%
[2]; PtTNP, dark, argon, 1 h
  Yield (HPLC) of photolytic reaction: No reaction
[2]; PtTNP, light, air, 1 h
  Yield (HPLC) of photolytic reaction: No reaction
[2]; PtTNP, light, argon, 1 h
  Yield (HPLC) of photolytic reaction: 14.7%
[2]; compound only (no PdTPBP), far red light, argon, 1 h
  Yield (HPLC) of photolytic reaction: No reaction
[2]; compound only (no PtTNP), NIR light, argon, 1 h
  Yield (HPLC) of photolytic reaction: No reaction
[2]; compound only, air, blue light (445 nm, 20 mW/cm^2), 60 min
  Yield (HPLC) of photolytic reaction: 59%
[2]; compound only, air, dark, 60 min
  Yield (HPLC) of photolytic reaction: No reaction
[2]; compound only, air, room light, 60 min
  Yield (HPLC) of photolytic reaction: No reaction
[3]; PPGs
  2 × T1 − S1: 0.26 eV
[3]; PPGs, from maximum fluorescence emission
  S1 singlet excited state: 2.78 eV
[3]
  λabs maximum absorption wavelength: 440
  λem maximum emission wavelength: 445
  ξ molar extinction coefficient: 4.0 10^4 M^−1 cm^−1
[5]; PdTPBP
  increase of ηp (TTAP) over ηp (direct): 282%
[5]; PdTPBP as sensitizer
  ε2 × Φp: ε (Sen) × Φp (PPGs); ηp (TTAP): 10230 ^g
[5]; PdTPBP as sensitizer, listed as Py
  ε2 × Φp: ε (Sen) × Φp (PPGs); ηp (TTAP): 10230
[5]; PtOEP
  increase of ηp (TTAP) over ηp (direct): 179%
[5]; PtOEP as sensitizer
  ε2 × Φp: ε (Sen) × Φp (PPGs); ηp (TTAP): 6510 ^j
[5]; PtOEP as sensitizer, listed as Py
  ε2 × Φp: ε (Sen) × Φp (PPGs); ηp (TTAP): 6510
[5]; PtTNP
  increase of ηp (TTAP) over ηp (direct): 342%
[5]; PtTNP as photosensitizer
  ε2 × Φp: ε (Sen) × Φp (PPGs); ηp (TTAP): 12400^h
[5]; PtTNP as photosensitizer, listed as Py
  ε2 × Φp: ε (Sen) × Φp (PPGs); ηp (TTAP): 12400
[5]; direct short wavelength illumination
  ε1 × Φp: ε (PPGs) × Φp (PPGs); ηp (direct): 3627
[1]; listed as Py
  T1 triplet excited state: 1.52 ^m eV and 1.52 eV
[6]; paired with PdTPBP
  upconversion quantum yield: 5.8%
[6]; paired with PtOEP
  upconversion quantum yield: 9.5%
[6]; paired with PtTNP
  upconversion quantum yield: 0.05%
[7]; PdTPBP
  quenching of the photoluminescence of PdTPBP: obvious quenching effects
[7]; PdTPBP as sensitizer
  ksv (bimolecular quenching constant): 1.09 × 10^9 g M^−1S^−1
  ksv Stern-Volmer quenching constant: 243000 g/M
[7]; PtOEP
  quenching of the photoluminescence of PtOEP: significant quenching
[7]; PtOEP as sensitizer
  ksv (bimolecular quenching constant): 2.9 × 10^9 j M^−1S^−1
  ksv Stern-Volmer quenching constant: 262000 J/M
[7]; PtTNP
  quenching of the photoluminescence of PtTNP: quenching effect

## CCCCNC(=O)OCc1ccc2c3cccc4cccc(c5cccc1c52)c43 [compound 10]
[2]; [11]
  photolytic yield: 52.4%
[2]; [12]
  photolytic yield: 29.3%

## O=C(CCCc1ccc(N(CCCl)CCCl)cc1)OCc1ccc2c3cccc4cccc(c5cccc1c52)c43 [compound 19]
[2]; Compound 19 only, 720 nm LED, 1 h
  Yield (HPLC yield): No reaction
[2]; Compound 19 only, argon, 720 nm LED, 1 h
  Yield (HPLC yield): No reaction
[2]; Compound 19 only, argon, red light, 2 h
  Yield (HPLC yield): No reaction
[2]; Compound 19 only, red light, 2 h
  Yield (HPLC yield): No reaction
[2]; PdTPBP, air, red light, 2 h
  Yield (HPLC yield): 7
[2]; PdTPBP, argon, dark, 2 h
  Yield (HPLC yield): No reaction
[2]; PdTPBP, argon, red light, 1 h
  Yield (HPLC yield): 72.8
[2]; PdTPBP, argon, red light, 2 h
  Yield (HPLC yield): 67.0
[2]; [11]
  photolytic yield: 72.8%
[2]; [12]
  photolytic yield: 30.4%
[2]; PtTNP, air, 720 nm LED, 1 h
  Yield (HPLC yield): No reaction
[2]; PtTNP, argon, dark, 1 h
  Yield (HPLC yield): No reaction
[2]; PtTNP, argon, 720 nm LED, 1 h
  Yield (HPLC yield): 30.4

## CC(C)COC(=O)OCc1ccc2c3cccc4cccc(c5cccc1c52)c43 [compound 9]
[2]; [11]
  photolytic yield: 65.3%
[2]; [12]
  photolytic yield: 27.8%

## CC(C)(C)OC(=O)N[C@@H](CSSC(C)(C)C)C(=O)OCc1ccc2c3cccc4cccc(c5cccc1c52)c43 [compound 14]
[2]; [11]
  photolytic yield: 81.2%
[2]; [12]
  photolytic yield: 23.3%

## CC(C)(C)OC(=O)NCC(=O)OCc1ccc2c3cccc4cccc(c5cccc1c52)c43 [compound 12]
[2]; [11]
  photolytic yield: 89.2%
[2]; [12]
  photolytic yield: 29.6%

## CC(C)COC(=O)OCc1c2ccccc2cc2ccccc12 [compound 3]
[2]; [8]
  photolytic yield: 72.3%
